Results as given in PMC7300217, “Surfactin Like Broad Spectrum Antimicrobial Lipopeptide Co-produced With Sublancin From Bacillus subtilis Strain A52: Dual Reservoir of Bioactives” (Frontiers in Microbiology, 2020).

Assays:
S. aureus MTCC 1430 [1] = test: MIC, microtiter plate dilution assay; assay type: cell-based, Staphylococcus aureus; conditions: 5 × 10^5 CFU/ml, 37°C, OD600 after 24 h, triplicate
Experimental: (§1) The antimicrobial activity was tested by well diffusion assay as mentioned earlier ([Singh et al., 2014]). Strain A52 was grown for 24 h in 500 ml of nutrient broth (NB, Hi-media, India) using 1000 ml flask and subsequently cells were removed by centrifugation (10,000 rpm for 15 min at 4°C). Supernatant was filtered through 0.22 μm filter (Millipore, United States) to obtain cell-free fermented broth (CFB) that was used for antimicrobial assay (50 μl) against various indicator strains and the activity was measured as diameter of inhibition zone. […]
(§2) The minimum inhibitory concentration (MIC) of HPLC purified peptides was evaluated by using microtiter plate dilution assay. […] OD was measured at 600 nm after 24 and 48 h for bacteria and yeast, respectively, using ELISA microplate reader (Thermo, United States). MIC against phytopathogenic fungi was determined using 96-well microtiter plate assay ([Kaur et al., 2016]). […] The microplates were incubated at 25°C and readings were recorded at 600 nm after 48 h. […]

B. subtilis MTCC 121 = test: MIC, microtiter plate dilution assay; assay type: cell-based, Bacillus subtilis; conditions: 5 × 10^5 CFU/ml, 37°C, OD600 after 24 h, triplicate
Experimental: as §1, §2

B. cereus MTCC 430 = test: MIC, microtiter plate dilution assay; assay type: cell-based; conditions: 5 × 10^5 CFU/ml, 37°C, OD600 after 24 h, triplicate
Experimental: (§3) The minimum inhibitory concentration (MIC) of HPLC purified peptides was evaluated by using microtiter plate dilution assay. The peptide concentration was estimated using BCA protein assay (Thermo Fisher Scientific, United States) method as described by manufacturer. Actively growing test strains (5 × 10^5 CFU/ml) were inoculated in a 96-well plate with different concentrations of the peptides and plates were incubated for 24–48 h at 37°C (final volume in each well is 200 μl). OD was measured at 600 nm after 24 and 48 h for bacteria and yeast, respectively, using ELISA microplate reader (Thermo, United States). MIC against phytopathogenic fungi was determined using 96-well microtiter plate assay ([Kaur et al., 2016]). In 96-well microplates, 100 μl of fungal spore suspension (1 × 10^5 spores/ml) prepared in potato dextrose broth (PDB, Hi-media, India) was mixed with100 μl of fresh PDB containing different concentrations of lipopeptide. Control well contained 100 μl of fungal spore suspension and 100 μl of only medium. The microplates were incubated at 25°C and readings were recorded at 600 nm after 48 h. The lowest concentration showing no growth was considered as MIC. Each test was done in triplicate and optical density (OD600) of peptide treated wells were compared with uninoculated wells (blank medium control).

B. coagulans MTCC 492 = test: MIC, microtiter plate dilution assay; assay type: cell-based; conditions: 5 × 10^5 CFU/ml, 37°C, OD600 after 24 h, triplicate
Experimental: as §3

M. luteus MTCC 106 = test: MIC, microtiter plate dilution assay; assay type: cell-based, Micrococcus luteus; conditions: 5 × 10^5 CFU/ml, 37°C, OD600 after 24 h, triplicate
Experimental: as §1, §2

proteinase K = target: T1, proteinase K (Parengyodontium album, UniProt P06873); test: Sensitivity to proteolytic enzyme, residual antimicrobial activity; assay type: in vitro ADME; conditions: 6h/ 37°C, enzyme 0.1, 1.0 and 5.0 mg/ml in 50 mM phosphate buffer pH 7.0, enzyme deactivated in boiling water 5 min
T1 construct: purchased Sigma, United States
Experimental: Sensitivity of purified peptides toward temperature, pH, and non-specific proteases was confirmed by performing bioassays. The pH stability was determined by adjusting the pH 2.0–12.0 of peptide aliquots (using 10 mM HCl or NaOH) and incubating for 4 h at room temperature. Samples were neutralized to pH 7.0 before processing for antimicrobial assay. To determine temperature susceptibility, peptides were incubated at different temperatures ranging from 37 to 100°C for 1 h and 121°C for 15 min and residual antimicrobial activity was determined at RT by well diffusion assay. Proteolytic enzymes trypsin and proteinase K (Sigma, United States) were used at three different concentrations (0.1, 1.0, and 5.0 mg/ml) to observe their effect on the peptide. The enzyme solutions were prepared in 50 mM phosphate buffer (pH 7.0). All reactions were performed at 37°C for 6 h followed by deactivation of enzyme by heating the solution in boiling water for 5 min before performing the activity assay.

[2] = tested on: A. brassicicola MTCC 2102 spores; test: Effect on fungal spores, phase contrast microscopy; assay type: cell-based, Alternaria brassicicola
Experimental: The effect of peptide on cell membrane was determined by scanning electron microscopy (SEM) and transmission electron microscopy (TEM) after treatment with AMPs. For this, test strains S. aureus MTCC 1430 and C. albicans MTCC 183 were cultured to mid-log phase in respective media. The cells were harvested by centrifugation at 10,000 × g for 10 min, washed thrice with 1X PBS, and re-suspended to adjust an OD600 of 0.2. […] Following the incubation, cells were processed for SEM and TEM as described ([Raje et al., 2006]). The specimens were completely dried using freeze drier, coated with gold, and visualized under a scanning electron microscope (ZEISS, Germany). For TEM (JEOL, JEM 2100, United States), cells were treated with peptide, washed, and subjected to negative stain 0.1% sodium phosphotungstate (Sigma, United States) for visualization. Effect of A52 lipopeptide on fungal spore was observed through a phase contrast microscope (Nickon H600L, Japan).

S. aureus MTCC 1430 [3] = test: In-gel activity assay (Tricine-SDS-PAGE); assay type: cell-based, Staphylococcus aureus; conditions: 16% Tricine-SDS-PAGE, ∼10^6 cells/ml
Experimental: Purified antimicrobial peptides were analyzed on TLC plates (Silica gel 60 F254, Merck, Germany) and used to determine the purity and antimicrobial activity of the compound by bioautographic assay ([Zheng et al., 2005]). About 50–60 μl of the peptide solution (100 μg/ml concentration) was loaded onto individual TLC silica gel plates in duplicates and were developed using a solvent system containing chloroform: […]: water (65:12:4 v/v). Subsequently, each TLC plate was dried, cut into two vertical parts, and one part of the TLC was used for direct detection of antimicrobial activity by overlaying on NA plate containing indicator strain (S. aureus MTCC 1430, ∼10^6 cells/ml). After allowing for 1 h of diffusion at 4°C, the TLC strip was removed and plates were incubated for 24 h at 37°C. The other part of TLC strip (5–10 μl of the peptide solution spot) was sprayed with ninhydrin and phosphomolybdic acid as a staining reagent to detect the presence of peptides and lipid moieties, respectively. Similarly, peptides were electrophoresed on 16% Tricine-SDS-PAGE and used for in-gel activity assay as described earlier ([Baindara et al., 2016]). S. aureus MTCC 1430 (∼10^6 cells/ml) was used as an indicator strain in assay.

T1 sequence (P06873 106-384): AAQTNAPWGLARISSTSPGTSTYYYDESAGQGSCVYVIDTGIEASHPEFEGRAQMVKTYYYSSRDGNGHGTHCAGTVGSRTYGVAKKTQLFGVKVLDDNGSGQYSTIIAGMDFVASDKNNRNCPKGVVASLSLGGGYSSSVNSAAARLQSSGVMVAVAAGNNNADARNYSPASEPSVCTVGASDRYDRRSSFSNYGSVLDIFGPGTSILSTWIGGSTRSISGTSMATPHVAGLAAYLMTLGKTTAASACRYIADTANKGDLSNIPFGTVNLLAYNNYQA

Glu^1-Leu/Ile^2-Leu^3-Val^4-Asp^5-Leu^6-Leu/Ile^7 and a β-OH hexadecane fatty acid chain (lariat or depsi) [Lipopeptide A52, cyclic surfactin-like lipopeptide, 7 amino acids and C16 β-hydroxy fatty acid, 1061.9 Da, from B. subtilis strain A52]
MIC value, S. aureus MTCC 1430 (S. aureus MTCC 1430 [1]): 4 µg/mL
MIC value, B. subtilis MTCC 121 (B. subtilis MTCC 121): 2 µg/mL
MIC value, B. cereus MTCC 430 (B. cereus MTCC 430): 2 µg/mL
MIC value, B. coagulans MTCC 492 (B. coagulans MTCC 492): 2 µg/mL
MIC value, M. luteus MTCC 106 (M. luteus MTCC 106): 1 µg/mL
Residual activity (%), Proteinase k (proteinase K): 100%
lysis of fungal spores [2]: able to lyse the spores
antimicrobial activity in in-gel assay (S. aureus MTCC 1430 [3]): No antimicrobial activity was detected
